{"source": "patent US20070023364A1", "about": "“Tetrasilver Tetraoxide as Disinfective Agent for Cryptosporidium” (priority 2005, published 2007)", "key": {"[1]": {"tested_on": "Cryptosporidium oocysts", "assay": "Iodine exposure of Cryptosporidium oocysts (killing)", "assay_type": "cell-based", "settings": "iodine up to 100 ppm (saturation level), 30 and 60 min exposure", "description": "(§1) Test studies confirmed these observations using doses of 5 and 15 ppm of iodine against three waterborne pathogens (Escherichia coli, Enterococcus faecalis and Pseudomonas aeruginosa). […] Unfortunately, experiments using iodine even up to 100 ppm (saturation level) were ineffective in killing Cryptosporidium oocysts when exposed for 30 and 60 min. periods, respectively."}, "[2]": {"tested_on": "Cryptosporidium parvum oocysts", "source_text": "Excystation, i.e., the release of sporozoites from the oocysts, was used to assess viability of the Cryptosporidium samples. COREXIT is 2-butoxyethanol (ethyleneglycol monobutyl ether), butyl cellosolve, butyl glycol, glycol ether eb. Other ethers similar to ethyleneglycol monobutyl ether may be used. This dispersant is composed of about 48% nonionic surfactants, including ethoxylated sorbitan mono- and trioleates (Tween 80 and Tween 85) and sorbitan monooleate (Span 80), about 35% anionic surfactants, including sodium dioctyl sulfosuccinate (AOT), and about 17% ethylene glycol monobutyl ether as a solvent EMULPHOR is an emulsifier derivative of corn oil. EMULPHOR may also be used rather than ALKAMUS. ALKAMUS is a polyethoxylated castor oil 40 mole ethoxlate. EMULPHOR from BASF, is a high molecular weight ether sulphate."}, "[3]": {"tested_on": "Escherichia coli, Enterococcus faecalis and Pseudomonas aeruginosa", "assay": "Iodine disinfection of waterborne bacterial pathogens", "assay_type": "cell-based", "settings": "5 ppm iodine", "description": "as §1"}, "[4]": {"tested_on": "Cryptosporidium", "settings": "ozone-exposed Cryptosporidium, accepted by USEPA; cited from earlier work"}, "[5]": {"tested_on": "aquatic species", "settings": "USEPA scientific findings; cited from earlier work"}, "[6]": {"tested_on": "Cryptosporidium parvum oocysts", "remark": "listed apart in the source", "experimental": "Disinfection was assessed using cell culture infectivity as the test, this procedure being more definitive than excystation. […] The 90% inactivation is a Log10 reduction of 1.0.\nInfectivity in cell cultures was used in this study. Although excystation is an acceptable way to assay for live sporozoites, infectivity in cell cultures is a definitive assay generally accepted by the scientific community for assessing Cryptosporidium oocyst viability/non-viability. This assay is virtually equivalent to using living mammals to confirm infectious organisms, but it provides better quantitation of viable/infectious organisms."}, "[7]": {"tested_on": "E. coli", "settings": "activated TTO, kill within 10 min or less; cited from earlier work"}, "[8]": {"settings": "activated tetrasilver tetraoxide; cited from earlier work"}, "[9]": {"tested_on": "avian species", "settings": "USEPA scientific findings; cited from earlier work"}, "[10]": {"settings": "3 mg/L TTO, 15 mg/L persulfate, 1% cocktail, 60 min"}, "[11]": {"settings": "2 and 3 mg/L activated TTO, irrespective of cocktail used"}, "[12]": {"settings": "activated 2 mg/L TTO in 1.0% cocktail, 60 min (study with 2, 5, 10 mg/L)"}, "[13]": {"settings": "2 ppm tetrasilver tetraoxide and 10 ppm potassium monopersulfate, excystation"}}, "note": "Several values for one entry are separate records, joined by “and”; a condition that tells them apart may be missing. Equal values may be shown once. Read-outs that look alike come from different tables or passages of the source.", "data": [{"smiles": "II", "note": "[iodine]", "values": [{"measurement": "killing of Cryptosporidium oocysts", "setting": "[1]", "value": "ineffective"}, {"measurement": "inactivation of oocysts", "setting": "[2]; saturated iodine solution with 1% cocktail of COREXIT and ALKAMUS EL 620, 3 hours", "value": "ineffective"}, {"measurement": "log10 reduction", "setting": "[3]; within 5 min", "value": 6, "unit": "log10"}, {"measurement": "log10 inactivation", "setting": "[3]; within 10 min of exposure", "value": "≤ 8", "unit": "log10"}]}, {"smiles": "O=[O+][O-]", "note": "[ozone]", "values": [{"measurement": "Log10 reduction", "setting": "[4]", "value": 2.0, "unit": "Log 10"}]}, {"smiles": "[Ag+].[Ag+].[Ag+].[Ag+].[O-2].[O-2].[O-2].[O-2]", "note": "[tetrasilver tetraoxide]", "values": [{"measurement": "toxicity to aquatic species", "setting": "[5]", "value": "toxic"}, {"measurement": "Average Infectious Oocysts × 100,000", "setting": "[6]; 1 mg/L TTO", "value": "68 × 100,000"}, {"measurement": "Average Log10 Reduction of Viable Oocysts (Inactivation)", "setting": "[6]; 1 mg/L TTO", "value": 0.23, "unit": "Log10"}, {"measurement": "Average Percent Oocyst Inactivation of all Variables", "setting": "[6]; 1 mg/L TTO", "value": 32.0, "unit": "%"}, {"measurement": "Log10 reduction", "setting": "[6]; 1 mg/L TTO, 0% cocktail, 60 min", "value": 0.6, "unit": "Log10"}, {"measurement": "inactivation", "setting": "[6]; 1 mg/L TTO, 0% cocktail, 60 min, 1.2×10^7 oocysts/50 mL", "value": 75, "unit": "%"}, {"measurement": "Infectious Oocysts × 100,000 using 1% Cocktail", "setting": "[6]; 1 mg/L TTO, 5 mg/L persulfate, 1% cocktail", "value": "100 × 100,000"}, {"measurement": "Average Infectious Oocysts × 100,000", "setting": "[6]; 2 mg/L TTO", "value": "35 × 100,000"}, {"measurement": "Average Log10 Reduction of Viable Oocysts (Inactivation)", "setting": "[6]; 2 mg/L TTO", "value": 0.83, "unit": "Log10"}, {"measurement": "Average Percent Oocyst Inactivation of all Variables", "setting": "[6]; 2 mg/L TTO", "value": 65.0, "unit": "%"}, {"measurement": "Infectious Oocytes × 100,000 using 0% Cocktail", "setting": "[6]; 2 mg/L TTO, 10 mg/L persulfate, 0% cocktail", "value": "2 × 100,000"}, {"measurement": "Log10 reduction", "setting": "[6]; 2 mg/L TTO, 10 mg/L persulfate, 0% cocktail, 60 min", "value": 1.8, "unit": "Log10"}, {"measurement": "Infectious Oocysts × 100,000 using 1% Cocktail", "setting": "[6]; 2 mg/L TTO, 10 mg/L persulfate, 1% cocktail", "value": "35 × 100,000"}, {"measurement": "Average Infectious Oocysts × 100,000", "setting": "[6]; 3 mg/L TTO", "value": "13 × 100,000"}, {"measurement": "Average Log10 Reduction of Viable Oocysts (Inactivation)", "setting": "[6]; 3 mg/L TTO", "value": 1.2, "unit": "Log10"}, {"measurement": "Average Percent Oocyst Inactivation of all Variables", "setting": "[6]; 3 mg/L TTO", "value": 87.0, "unit": "%"}, {"measurement": "Log10 reduction", "setting": "[6]; 3 mg/L TTO, 0% cocktail, 60 min", "value": 1.3, "unit": "Log10"}, {"measurement": "Infectious Oocysts × 100,000 using 1% Cocktail", "setting": "[6]; 3 mg/L TTO, 15 mg/L persulfate, 1% cocktail", "value": "2 × 100,000"}, {"measurement": "Log10 oocyst reduction", "setting": "[6]; [10]", "value": 1.8, "unit": "Log10"}, {"measurement": "inactivation / kill of oocysts", "setting": "[6]; [10]", "value": 98, "unit": "%"}, {"measurement": "effectiveness of inactivation with cocktail versus average inactivation of infectious oocysts", "setting": "[6]; 3 mg/L TTO, cocktail present", "value": 6.5, "unit": "times"}, {"measurement": "Log10 reduction", "setting": "[6]; [11]", "value": 1.8, "unit": "Log10"}, {"measurement": "kill of oocysts", "setting": "[6]; [11]", "value": 98, "unit": "%"}, {"measurement": "Log10 reduction", "setting": "[6]; [12]", "value": 1.0, "unit": "Log10"}, {"measurement": "oocyst inactivation relative to stock oocyst control", "setting": "[6]; [12]", "value": 90, "unit": "%"}, {"measurement": "inactivation", "setting": "[6]; cocktail concentration raised to 2%, 60 min", "value": "Lesser, but significant inactivations"}, {"measurement": "Log10 reduction/inactivation", "setting": "[6]; other test matrices (2, 5, 10 mg/L, with and without 1% cocktail), 60 min", "value": "less than a one Log10 reduction/inactivation"}, {"measurement": "concentration that kills the organisms", "setting": "[7]", "value": "1-2 ppm"}, {"measurement": "inactivation of oocysts", "setting": "[2]; 1% cocktail, 3 hours, 1×10^3 oocysts in 50 ml HMEM", "value": 19.4, "unit": "%"}, {"measurement": "viable oocysts by excystation", "setting": "[2]; 2 ppm tetrasilver tetraoxide and 10 ppm potassium monopersulfate", "value": "1.2+/−1.1%"}, {"measurement": "kill", "setting": "[2]; [13]", "value": 98.8, "unit": "%"}, {"measurement": "log10 reduction in infectious Cryptosporidium parvum", "setting": "[2]; [13]", "value": "2 log10 and 2.0 log10"}, {"measurement": "mutagenicity", "setting": "[8]", "value": "not mutagenic"}, {"measurement": "toxicity to avian species", "setting": "[9]", "value": "practically non-toxic"}]}]}
